Assay results: ChEMBL document CHEMBL5303573, “Mapping human microbiome drug metabolism by gut bacteria and their genes” (Nature, 2019)

How the values were obtained:
[1] = The drug is tested on Clostridium hathewayi strain: DSM13479 for biotransformation. The drug concentrations were measured before and after a 12-h incubation by liquid-chromatography-coupled mass spectrometry (LC–MS); conditions: hungatella hathewayi, 2 µM
[2] = The drug is tested on Clostridium spiroforme strain: DSM1552 for biotransformation. The drug concentrations were measured before and after a 12-h incubation by liquid-chromatography-coupled mass spectrometry (LC–MS); conditions: thomasclavelia spiroformis, 2 µM

SMILES	Bacterial Biotransformation [1]	Bacterial Biotransformation [2]
O=C(O)COCCN1CCN(C(c2ccccc2)c2ccc(Cl)cc2)CC1 (centres undefined) [CETIRIZINE]	Compound NOT metabolized	
CC(NC(C)(C)C)C(=O)c1cccc(Cl)c1 (centres undefined) [BUPROPION]	Compound NOT metabolized	Compound NOT metabolized
CC(C)NCC(O)COc1ccc(CCOCC2CC2)cc1 (centres undefined) [BETAXOLOL]	Compound NOT metabolized	Compound NOT metabolized
COC(=O)[C@H](c1ccccc1Cl)N1CCc2sccc2C1.O=S(=O)(O)O [CLOPIDOGREL BISULFATE]		Compound NOT metabolized
CN/C(=N/CCSCc1nc[nH]c1C)NC#N [CIMETIDINE]	Compound NOT metabolized	Compound NOT metabolized
CCCC(=O)Nc1ccc(OCC(O)CNC(C)C)c(C(C)=O)c1 (centres undefined) [ACEBUTOLOL]	Compound NOT metabolized	Compound NOT metabolized
CC(C)NCC(O)COc1ccc(CC(N)=O)cc1 (centres undefined) [ATENOLOL]		Compound NOT metabolized
CN(C)CCC=C1c2ccccc2C=Cc2ccccc21 [CYCLOBENZAPRINE]	Compound NOT metabolized	Compound NOT metabolized
Clc1cccc(Cl)c1N=C1NCCN1 [CLONIDINE]	Compound NOT metabolized	Compound NOT metabolized
CN1CCN(C2=Nc3cc(Cl)ccc3Nc3ccccc32)CC1 [CLOZAPINE]	Compound NOT metabolized	Compound NOT metabolized
c1ccc([C@H]2CN3CCSC3=N2)cc1 [LEVAMISOLE]	Compound NOT metabolized	Compound NOT metabolized
O=P1(N(CCCl)CCCl)NCCCO1 (centres undefined) [CYCLOPHOSPHAMIDE ANHYDROUS]		Compound NOT metabolized
COc1ccccc1OCCNCC(O)COc1cccc2[nH]c3ccccc3c12 (centres undefined) [CARVEDILOL]	Compound metabolized	Compound metabolized
CCOc1cc(CC(=O)N[C@@H](CC(C)C)c2ccccc2N2CCCCC2)ccc1C(=O)O [REPAGLINIDE]	Compound NOT metabolized	Compound NOT metabolized
